From paper PMC7265341, “Quantifying CDK inhibitor selectivity in live cells” (Nature Communications, 2020)
Like-named read-outs stand apart in the source and are kept apart here.

Tests used:
[1] = target: CDK4/Cyclin D1 (Homo sapiens, UniProt P11802); assay: NanoBRET live-cell target engagement, NanoLuc-CDK4/Cyclin D1 in HEK-293; assay type: binding; settings: for inhibition at 10 µM: read-out: CDK4/D1 Inhibition at 10µM (%); for IC50: read-out: CDK4/D1 IC50
[2] = target: CDK3/Cyclin E1 (Homo sapiens, UniProt Q00526); assay: NanoBRET live-cell target engagement, CDK3-NanoLuc/Cyclin E1 in HEK-293; assay type: binding; settings: for inhibition at 10 µM: read-out: CDK3/E1 Inhibition at 10µM (%); for IC50: read-out: CDK3/E1 IC50
[3] = target: CDK9/Cyclin K (Homo sapiens, UniProt P50750); assay: NanoBRET live-cell target engagement, NanoLuc-CDK9/Cyclin K in HEK-293; assay type: binding; settings: 10µM, read-out: CDK9/K Inhibition at 10µM (%)
[4] = target: CDK5/CDK5R1 (Homo sapiens, UniProt Q00535); assay: NanoBRET live-cell target engagement, CDK5-NanoLuc/CDK5R1 in HEK-293; assay type: binding; settings: for inhibition at 10 µM: read-out: CDK5/CDK5R1 Inhibition at 10µM (%); for IC50: read-out: CDK5/CDK5R1 IC50
[5] = target: CDK1/Cyclin E1 (Homo sapiens, UniProt P06493); assay: NanoBRET live-cell target engagement, CDK1-NanoLuc/Cyclin E1 in HEK-293; assay type: binding; settings: for inhibition at 10 µM: read-out: CDK1/E1 Inhibition at 10µM (%); for IC50: read-out: CDK1/E1 IC50
[6] = target: CDK19/Cyclin C (Homo sapiens, UniProt Q9BWU1); assay: NanoBRET live-cell target engagement, NanoLuc-CDK19/Cyclin C in HEK-293; settings: read-out: CDK19/C Inhibition at 10µM (%), 10µM
[7] = target: CDK18/Cyclin Y (Homo sapiens, UniProt Q07002); assay: NanoBRET live-cell target engagement, CDK18-NanoLuc/Cyclin Y in HEK-293; assay type: binding; settings: for IC50: read-out: CDK18/Y IC50; for inhibition at 10 µM: read-out: CDK18/Y Inhibition at 10µM (%), 10µM
[8] = target: CDK6/Cyclin D1 (Homo sapiens, UniProt Q00534); assay: NanoBRET live-cell target engagement, NanoLuc-CDK6/Cyclin D1 in HEK-293; assay type: binding; settings: for inhibition at 10 µM: read-out: CDK6/D1 Inhibition at 10µM (%); for CDK6 Occupancy (%): Panel A
[9] = target: CDK10/Cyclin L2 (Homo sapiens, UniProt Q15131); assay: NanoBRET live-cell target engagement, CDK10-NanoLuc/Cyclin L2 in HEK-293; settings: for inhibition at 10 µM: read-out: CDK10/L2 Inhibition at 10µM (%), 10µM
[10] = target: CDK16/Cyclin Y (Homo sapiens, UniProt Q00536); assay: NanoBRET live-cell target engagement, CDK16-NanoLuc/Cyclin Y in HEK-293; assay type: binding; settings: for IC50: read-out: CDK16/Y IC50; for inhibition at 10 µM: read-out: CDK16/Y Inhibition at 10µM (%), 10µM
[11] = target: CDK8/Cyclin C (Homo sapiens, UniProt P49336); assay: NanoBRET live-cell target engagement, NanoLuc-CDK8/Cyclin C in HEK-293; assay type: binding; settings: 10µM, read-out: CDK8/C Inhibition at 10µM (%)

Chain of CDK16/Cyclin Y (Q00536 whole entry): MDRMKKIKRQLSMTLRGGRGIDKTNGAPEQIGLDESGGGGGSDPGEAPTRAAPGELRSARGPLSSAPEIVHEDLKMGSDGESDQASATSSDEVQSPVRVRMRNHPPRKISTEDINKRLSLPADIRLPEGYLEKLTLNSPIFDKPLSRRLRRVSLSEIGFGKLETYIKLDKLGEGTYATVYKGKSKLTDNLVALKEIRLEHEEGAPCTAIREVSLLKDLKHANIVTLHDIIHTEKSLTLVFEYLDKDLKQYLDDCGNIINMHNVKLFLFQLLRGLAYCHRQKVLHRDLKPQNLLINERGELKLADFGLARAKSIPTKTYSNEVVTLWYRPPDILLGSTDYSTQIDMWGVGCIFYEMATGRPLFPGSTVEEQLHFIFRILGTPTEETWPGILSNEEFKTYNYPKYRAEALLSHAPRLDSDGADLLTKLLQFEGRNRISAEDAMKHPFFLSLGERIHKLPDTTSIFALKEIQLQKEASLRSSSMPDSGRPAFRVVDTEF
Chain of CDK16/Cyclin Y (Q8ND76 whole entry partner): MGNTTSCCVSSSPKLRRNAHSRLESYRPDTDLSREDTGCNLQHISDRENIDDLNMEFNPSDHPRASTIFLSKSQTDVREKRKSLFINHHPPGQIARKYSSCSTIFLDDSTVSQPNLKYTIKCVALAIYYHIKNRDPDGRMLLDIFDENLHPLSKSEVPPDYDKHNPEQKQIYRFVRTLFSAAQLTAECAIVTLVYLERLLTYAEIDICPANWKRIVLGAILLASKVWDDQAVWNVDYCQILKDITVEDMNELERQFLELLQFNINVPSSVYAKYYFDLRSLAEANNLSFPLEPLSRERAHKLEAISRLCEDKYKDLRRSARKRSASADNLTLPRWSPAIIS
Chain of CDK1/Cyclin E1 (P06493 whole entry): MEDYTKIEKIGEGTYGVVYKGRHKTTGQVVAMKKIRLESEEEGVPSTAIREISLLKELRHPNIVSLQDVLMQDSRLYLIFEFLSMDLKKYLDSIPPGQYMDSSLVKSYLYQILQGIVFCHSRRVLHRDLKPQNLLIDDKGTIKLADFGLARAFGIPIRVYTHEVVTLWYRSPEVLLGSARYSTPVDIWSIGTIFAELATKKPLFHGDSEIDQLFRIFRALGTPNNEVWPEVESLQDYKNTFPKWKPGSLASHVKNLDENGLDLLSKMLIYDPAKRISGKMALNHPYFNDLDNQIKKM
Chain of CDK1/Cyclin E1 (P24864 whole entry partner): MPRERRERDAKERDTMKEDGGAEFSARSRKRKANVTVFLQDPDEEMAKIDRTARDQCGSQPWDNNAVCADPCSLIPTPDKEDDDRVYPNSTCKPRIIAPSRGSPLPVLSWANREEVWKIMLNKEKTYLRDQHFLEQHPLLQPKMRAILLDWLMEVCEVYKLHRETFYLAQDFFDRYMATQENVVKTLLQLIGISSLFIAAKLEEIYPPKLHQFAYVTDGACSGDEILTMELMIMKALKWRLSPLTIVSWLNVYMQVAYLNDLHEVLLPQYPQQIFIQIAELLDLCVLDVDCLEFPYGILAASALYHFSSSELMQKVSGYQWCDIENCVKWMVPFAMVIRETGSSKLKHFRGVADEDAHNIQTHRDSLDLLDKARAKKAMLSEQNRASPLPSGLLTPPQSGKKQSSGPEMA
Chain of CDK6/Cyclin D1 (Q00534 whole entry): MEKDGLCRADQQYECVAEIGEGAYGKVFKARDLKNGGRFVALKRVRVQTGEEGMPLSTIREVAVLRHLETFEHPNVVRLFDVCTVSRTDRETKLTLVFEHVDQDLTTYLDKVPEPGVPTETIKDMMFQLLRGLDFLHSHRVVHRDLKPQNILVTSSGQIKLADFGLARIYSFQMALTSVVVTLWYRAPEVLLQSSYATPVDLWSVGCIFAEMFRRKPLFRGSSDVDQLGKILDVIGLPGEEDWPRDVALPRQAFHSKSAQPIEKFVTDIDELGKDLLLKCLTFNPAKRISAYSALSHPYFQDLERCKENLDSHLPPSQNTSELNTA
Chain of CDK6/Cyclin D1 (P24385 whole entry partner): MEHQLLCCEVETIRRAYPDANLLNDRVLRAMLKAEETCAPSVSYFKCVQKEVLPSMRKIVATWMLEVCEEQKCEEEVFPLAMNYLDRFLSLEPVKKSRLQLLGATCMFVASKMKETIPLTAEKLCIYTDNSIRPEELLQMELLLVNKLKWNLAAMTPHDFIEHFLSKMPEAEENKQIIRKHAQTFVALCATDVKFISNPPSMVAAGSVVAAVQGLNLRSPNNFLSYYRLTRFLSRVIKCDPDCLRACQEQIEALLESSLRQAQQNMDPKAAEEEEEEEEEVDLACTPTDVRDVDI
Chain of CDK19/Cyclin C (Q9BWU1 whole entry): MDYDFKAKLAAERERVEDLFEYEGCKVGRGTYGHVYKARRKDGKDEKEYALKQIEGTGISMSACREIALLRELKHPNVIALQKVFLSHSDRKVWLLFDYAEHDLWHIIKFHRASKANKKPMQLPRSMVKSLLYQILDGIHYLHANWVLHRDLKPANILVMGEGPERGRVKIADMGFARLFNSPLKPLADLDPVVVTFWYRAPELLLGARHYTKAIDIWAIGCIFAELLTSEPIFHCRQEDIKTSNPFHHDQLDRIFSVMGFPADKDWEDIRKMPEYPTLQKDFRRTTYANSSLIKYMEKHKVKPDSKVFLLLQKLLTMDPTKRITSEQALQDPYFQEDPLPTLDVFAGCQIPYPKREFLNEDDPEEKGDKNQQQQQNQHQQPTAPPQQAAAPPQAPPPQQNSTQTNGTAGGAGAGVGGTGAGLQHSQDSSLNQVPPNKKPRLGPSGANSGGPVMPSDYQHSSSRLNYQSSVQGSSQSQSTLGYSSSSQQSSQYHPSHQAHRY
Chain of CDK19/Cyclin C (P24863 whole entry partner): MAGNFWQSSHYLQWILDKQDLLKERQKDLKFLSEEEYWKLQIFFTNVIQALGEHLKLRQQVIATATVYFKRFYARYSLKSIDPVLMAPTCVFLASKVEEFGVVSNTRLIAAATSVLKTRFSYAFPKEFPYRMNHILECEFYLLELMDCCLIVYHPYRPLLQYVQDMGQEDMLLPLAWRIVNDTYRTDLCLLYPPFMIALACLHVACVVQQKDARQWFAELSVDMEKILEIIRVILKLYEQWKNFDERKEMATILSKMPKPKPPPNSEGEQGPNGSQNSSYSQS
Chain of CDK9/Cyclin K (P50750 whole entry): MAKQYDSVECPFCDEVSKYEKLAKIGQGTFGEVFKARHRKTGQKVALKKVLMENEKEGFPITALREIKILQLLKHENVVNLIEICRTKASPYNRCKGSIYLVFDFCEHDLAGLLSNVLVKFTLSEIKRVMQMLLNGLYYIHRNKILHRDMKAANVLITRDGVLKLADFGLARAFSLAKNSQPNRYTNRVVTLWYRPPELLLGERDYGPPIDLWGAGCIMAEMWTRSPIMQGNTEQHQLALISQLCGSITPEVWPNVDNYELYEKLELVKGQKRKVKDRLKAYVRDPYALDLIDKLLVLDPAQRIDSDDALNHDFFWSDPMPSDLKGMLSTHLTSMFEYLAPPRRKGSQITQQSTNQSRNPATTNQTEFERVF
Chain of CDK9/Cyclin K (O75909 whole entry partner): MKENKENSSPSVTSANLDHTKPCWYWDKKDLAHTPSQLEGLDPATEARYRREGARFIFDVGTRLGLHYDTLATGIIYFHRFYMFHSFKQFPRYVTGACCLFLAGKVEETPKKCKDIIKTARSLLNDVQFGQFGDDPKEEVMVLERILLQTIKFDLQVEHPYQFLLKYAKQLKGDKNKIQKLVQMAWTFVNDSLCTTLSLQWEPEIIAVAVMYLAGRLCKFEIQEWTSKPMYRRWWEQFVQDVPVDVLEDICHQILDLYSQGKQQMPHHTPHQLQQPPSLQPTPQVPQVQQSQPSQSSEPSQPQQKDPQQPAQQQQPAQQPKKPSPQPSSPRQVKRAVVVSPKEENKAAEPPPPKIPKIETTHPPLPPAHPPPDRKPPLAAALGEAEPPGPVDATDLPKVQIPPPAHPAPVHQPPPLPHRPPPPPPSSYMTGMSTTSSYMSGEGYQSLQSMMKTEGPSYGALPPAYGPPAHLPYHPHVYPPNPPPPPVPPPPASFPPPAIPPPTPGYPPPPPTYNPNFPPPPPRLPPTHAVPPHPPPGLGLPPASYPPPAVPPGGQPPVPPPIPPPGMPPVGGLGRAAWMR
Chain of CDK4/Cyclin D1 (P11802 whole entry): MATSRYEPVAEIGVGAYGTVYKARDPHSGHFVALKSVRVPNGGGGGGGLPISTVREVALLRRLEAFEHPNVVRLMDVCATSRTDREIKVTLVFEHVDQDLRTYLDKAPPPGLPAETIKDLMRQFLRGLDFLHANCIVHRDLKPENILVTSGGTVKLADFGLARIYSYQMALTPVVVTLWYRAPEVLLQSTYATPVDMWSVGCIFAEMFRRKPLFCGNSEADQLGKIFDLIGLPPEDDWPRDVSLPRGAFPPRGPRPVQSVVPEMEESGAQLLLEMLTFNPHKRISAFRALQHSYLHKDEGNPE
Chain of CDK4/Cyclin D1 (P24385 whole entry partner): as the sequence (P24385 whole entry partner) above
Chain of CDK18/Cyclin Y (Q07002 whole entry): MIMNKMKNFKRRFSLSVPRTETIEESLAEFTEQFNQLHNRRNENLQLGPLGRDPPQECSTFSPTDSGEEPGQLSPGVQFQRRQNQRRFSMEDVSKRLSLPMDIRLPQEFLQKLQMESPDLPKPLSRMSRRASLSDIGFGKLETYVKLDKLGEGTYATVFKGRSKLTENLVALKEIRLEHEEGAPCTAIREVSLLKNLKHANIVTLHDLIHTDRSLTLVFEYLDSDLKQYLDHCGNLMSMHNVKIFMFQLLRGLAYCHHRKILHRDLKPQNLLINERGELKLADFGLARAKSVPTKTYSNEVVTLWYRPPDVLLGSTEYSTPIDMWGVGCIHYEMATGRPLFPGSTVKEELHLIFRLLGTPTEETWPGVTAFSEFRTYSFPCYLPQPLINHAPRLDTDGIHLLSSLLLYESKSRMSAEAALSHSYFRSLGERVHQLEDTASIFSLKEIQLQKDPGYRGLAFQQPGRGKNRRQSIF
Chain of CDK18/Cyclin Y (Q8ND76 whole entry partner): as the sequence (Q8ND76 whole entry partner) above

COCCN1CCN(Cc2ccc(-c3n[nH]c4c3C(=O)c3c(NC(=O)NN5CCOCC5)cccc3-4)cc2)CC1 [RGB286638]
inhibition at 10 µM ([1]; average of experiments): 99.8%
inhibition at 10 µM ([1]; independent experiment 1): 99.7%
inhibition at 10 µM ([1]; independent experiment 2): 100%
IC50 ([1]; average (± SEM where n=3)): 10 nM
IC50 ([1]; independent experiment 1): 9.6 nM
IC50 ([1]; independent experiment 2): 11 nM
inhibition at 10 µM ([2]; average of experiments): 91.3%
inhibition at 10 µM ([2]; independent experiment 1): 89.1%
inhibition at 10 µM ([2]; independent experiment 2): 93.6%
IC50 ([2]; average (± SEM where n=3)): 12 nM
IC50 ([2]; independent experiment 1): 14 nM
IC50 ([2]; independent experiment 2): 10 nM
inhibition at 10 µM ([3]; average of experiments): 94.7%
inhibition at 10 µM ([3]; independent experiment 1): 90.7%
inhibition at 10 µM ([3]; independent experiment 2): 98.8%
inhibition at 10 µM ([4]; average of experiments): 84.4%
inhibition at 10 µM ([4]; independent experiment 1): 71.7%
inhibition at 10 µM ([4]; independent experiment 2): 97.2%
IC50 ([4]; average (± SEM where n=3)): 75 nM
IC50 ([4]; independent experiment 1): 80 nM
IC50 ([4]; independent experiment 2): 70 nM
inhibition at 10 µM ([5]; average of experiments): 87.9%
inhibition at 10 µM ([5]; independent experiment 1): 79.8%
inhibition at 10 µM ([5]; independent experiment 2): 96%
IC50 ([5]; average (± SEM where n=3)): 39 nM
IC50 ([5]; independent experiment 1): 37 nM
IC50 ([5]; independent experiment 2): 41 nM
inhibition at 10 µM ([6]; average of experiments): 58%
inhibition at 10 µM ([6]; independent experiment 1): 32.8%
inhibition at 10 µM ([6]; independent experiment 2): 83.3%
IC50 ([7]; average (± SEM where n=3)): 10 nM
IC50 ([7]; independent experiment 1): 8.6 nM
IC50 ([7]; independent experiment 2): 11 nM
inhibition at 10 µM ([7]; average of experiments): 99.6%
inhibition at 10 µM ([7]; independent experiment 1): 97.4%
inhibition at 10 µM ([7]; independent experiment 2): 102%
inhibition at 10 µM ([8]; average of experiments): 99.1%
inhibition at 10 µM ([8]; independent experiment 1): 98.9%
inhibition at 10 µM ([8]; independent experiment 2): 99.4%
CDK6 Occupancy (%) ([8]; LOG10([RGB-286638]) 0.045757 LOG10(µM)): 96.3121%
CDK6 Occupancy (%) ([8]; LOG10([RGB-286638]) 0.522879 LOG10(µM)): 95.6738%
CDK6 Occupancy (%) ([8]; LOG10([RGB-286638]) 1 LOG10(µM)): 95.6028%
CDK6 Occupancy (%) ([8]; LOG10([RGB-286638]) -0.43136 LOG10(µM)): 95.1064%
CDK6 Occupancy (%) ([8]; LOG10([RGB-286638]) -0.90849 LOG10(µM)): 90.4255%
CDK6 Occupancy (%) ([8]; LOG10([RGB-286638]) -1.38561 LOG10(µM)): 76.8794%
CDK6 Occupancy (%) ([8]; LOG10([RGB-286638]) -1.86273 LOG10(µM)): 49.6454%
CDK6 Occupancy (%) ([8]; LOG10([RGB-286638]) -2.33985 LOG10(µM)): 19.8582%
CDK6 Occupancy (%) ([8]; LOG10([RGB-286638]) -2.81697 LOG10(µM)): 7.0922%
CDK6 Occupancy (%) ([8]; LOG10([RGB-286638]) -3.29409 LOG10(µM)): 2.128%
CDK6 Occupancy (%) ([8]; LOG10([RGB-286638]) -3.77121 LOG10(µM)): 0%
IC50 ([8]; average (± SEM where n=3), read-out: CDK6/D1 IC50): 12 ± 1 nM
IC50 ([8]; independent experiment 1, read-out: CDK6/D1 IC50): 13 nM
IC50 ([8]; independent experiment 2, read-out: CDK6/D1 IC50): 9.7 nM
IC50 ([8]; independent experiment 3, read-out: CDK6/D1 IC50): 14 nM
IC50 ([8]; live HEK-293, 2 h, mean ± S.E.M. (n=3) or mean (n=2), read-out: IC50 for CDK/cyclin complexes, CDK6/D1): 12 to 16 nM
IC50 ([9]; CDK10/L2 IC50 (nM), average (± SEM where n=3)): 790 nM
IC50 ([9]; CDK10/L2 IC50 (nM), independent experiment 1): 790 nM
IC50 ([9]; CDK10/L2 IC50 (nM), independent experiment 2): 780 nM
IC50 ([9]; IC50 for CDK/cyclin complexes, CDK10/L2, live HEK-293, 2 h, mean ± S.E.M. (n=3) or mean (n=2)): 790 nM
inhibition at 10 µM ([9]; average of experiments): 61.4%
inhibition at 10 µM ([9]; independent experiment 1): 37.8%
inhibition at 10 µM ([9]; independent experiment 2): 85.1%
IC50 ([10]; average (± SEM where n=3)): 5.2 nM
IC50 ([10]; independent experiment 1): 5.4 nM
IC50 ([10]; independent experiment 2): 5 nM
inhibition at 10 µM ([10]; independent experiment 1): 95.2%
inhibition at 10 µM ([10]; independent experiment 2): 92.3%
inhibition at 10 µM ([11]; average of experiments): 55.6%
inhibition at 10 µM ([11]; independent experiment 1): 21.9%
